Assay results from patent US20150072416A1, “METABOLITE FOR IMPROVING PRODUCTION, MAINTENANCE AND PROLIFERATION OF PLURIPOTENT STEM CELLS, COMPOSITION COMPRISING THE SAME, AND METHOD OF CULTURING PLURIPOTENT STEM CELL USING THE SAME” (KOREA RESEARCH INSTITUTE OF BIOSCIENCE AND BIOTENOLOGY, priority 2012, published 2015).

Experiments:
[1] = system: promoter regions of Nanog and Oct4; experiment: Chromatin immunoprecipitation of histone 3 methylation at Nanog and Oct4 promoters; assay type: cell-based, human
Experimental: Formaldehyde was added to a cell culture to fix the cells, and then the chromatin was fragmented to a suitable size by sonication. The chromatin was immunoprecipitated with antibodies to lysine residues 4 and 27 of histone 3, and then the DNA was collected and amplified by real-time polymerase chain reaction using primers for the Oct4 and Nanog promoter regions.

[2] = system: human foreskin fibroblasts (hFFs); experiment: Reprogramming efficiency of human fibroblasts into induced pluripotent stem cells (AP-positive colonies); assay type: cell-based; conditions: for efficiency of reprogramming by timing of treatment: 1 mM
Experimental: Reprogramming efficiency was determined by measuring the number of colonies showing a positive response in the pluripotency-specific marker alkaline phosphatase (AP) staining and having hESC-like morphology. For production of iPSC, human foreskin fibroblasts (hFFs) were seeded on gelatin-coated 6-well plates at a concentration of 1×10^5 cells per well at 6 hours before transfection and were transfected with virus in the presence of polybrene (6 μg/ml). At 5 days after the transfection, the hFFs were collected by trypsin treatment and reseeded on Matrigel-coated 6-well plates at a concentration of 5-6×10^4 cells per well in order to perform experiments in feeder-free conditions. The medium was replaced with MEF-CM medium containing 10 ng/ml of bFGF. The medium was replaced at 2-day intervals. At 20 days after the transfection, hESC-like colonies were collected and transferred to 12-well plates having MEFs as feeder cells, and then the colonies were continuously cultured using the hESC culture method described in Example 1. In order to measure the efficiency of reprogramming into human induced pluripotent stem cells, the number of colonies stained with the embryonic stem cell marker ALP on the Matrigel-coated 6-well plate was counted, and the efficiency of reprogramming was calculated. Each experiment was performed in triplicate. AP staining was performed using a commercial AP kit (Sigma) according to the manufacturer's instruction. Images of AP-positive cells were recorded with HP Scanjet G4010. Also, bight field images were obtained with an Olympus microscope (IX51, Olympus, Japan). In order to examine the change in reprogramming efficiency of human fibroblasts caused by nicotinamide, retrovirus expressing the reprogramming factors Oct4, Sox2, Klf4 and c-Myc was transfected at an MOI of 1. Reprogramming efficiencies caused by the addition of nicotinamide and other NAD precursors were examined.

[3] = system: H9 human embryonic stem cells and human induced pluripotent stem cells; experiment: Low-density cloning after single-cell dissociation (AP staining, apoptosis); assay type: cell-based; conditions: AP staining and apoptosis assays
Experimental: In order to examine the effect of nicotinamide on a reduction in the apoptosis of human pluripotent stem cells, dual apoptosis assay (Biotium, Hayward, Calif.) was performed. Embryonic stem cells or cells reprogrammed were stained with NucView™488 Caspase-3 Substrate (green)/Annextin V (red) at room temperature for 30 minutes, followed by washing with PBS. At least 4 sections of each sample were imaged with an Olympus fluorescence microscope (IX51, Olympus), and the number of cells stained with green (Caspase-3) was counted to quantify the degree of apoptosis.
In order to examine the effect of nicotinamide on the survival of human pluripotent stem cells at low density, human pluripotent stem cells were treated with TrypLE reagent (Invitrogen) for 3 minutes, and then dissociated into single cells by pipetting and seeded on a Matrigel-coated 96-well plate at a density of 500 cells per well. After 5 days of culture, human pluripotent stem cell colonies started to be formed, and the cells were fixed with 4% paraformaldehyde, and then AP staining was performed or the level of apoptosis was measured.

For `NC(=O)c1cccnc1` [nicotinamide], the “methylation of lysine residue 4 of histone 3 in promoter regions of Nanog and Oct4” value [1] was “increased”, the “methylation of residue 27 of histone 3 in promoter regions of Nanog and Oct4” value [1] was “decreased” and the “increase in reprogramming efficiency (AP-positive colonies)” value (shortened to “increase”) ([2]; 0.1 mM nicotinamide, compared to untreated group) was 13 times. For the same molecule, the “increase” value ([2]; 1 mM nicotinamide, compared to untreated group) was 28 times, the “increase” value ([2]; 10 mM nicotinamide, compared to untreated group) was 16 times and the “increase” value ([2]; 20 mM nicotinamide, compared to untreated group) was 2 times. For the same molecule, the “increase” value ([2]; compared to the addition of other NAD precursors, OSKM retrovirus MOI 1) was “about 17 times”, the “efficiency of reprogramming by timing of treatment” value ([2]; continuous treatment throughout the process of inducing reprogramming) was “highest increase” and the “reprogramming efficiency, same cell number reseeded” value ([2]; nicotinamide for 5 days after infection, not added after reseeding, vs untreated control) was “increase in reprogramming efficiency”. The “reprogramming efficiency, same cell number reseeded” value ([2]; nicotinamide only after reseeding (21 days), not in initial stage, vs untreated) was “increase in reprogramming efficiency”, the “efficiency of reprogramming by timing of treatment” value ([2]; treatment in initial stage immediately after viral infection) was “most effectively increased” and the “survival and self-renewal abilities at low density after single-cell dissociation” value [3] was “significantly increased”.
